SMILES strings stand for the structures.

As a reminder, the IC50 is the midpoint of a concentration-inhibition curve. A lower IC50 goes with greater potency in that assay. By ED50 is commonly meant the midpoint of the dose-response relation. Broadly, the Ki is the equilibrium dissociation constant of an inhibitor or competing ligand from its target.

Test [1] is filed under the species Rattus norvegicus. Put plainly: Evaluated for inhibition of norepinephrine, biogenic amine reuptake in synaptosomal rat brain preparations. In kind it is functional.
The species named for test [2] is Rattus norvegicus. Put plainly: […] reversal of passive avoidance deficit in olfactory bulbectomized rats. In kind it is functional.
The target of test [3] is Serotonin 2 (5-HT2) receptor (Rattus norvegicus, UniProt P30994+P08909+P14842). Put plainly: Compound was evaluated for its binding affinity to 5-hydroxytryptamine 2 receptor in rat cortex using [3H]ketanserin radioligand assay.
The target in test [4] is Serotonin 1 (5-HT1) receptor (Rattus norvegicus, UniProt P28564+P30940+P19327+P28565). Put plainly: Compound was evaluated for its binding affinity to 5-hydroxytryptamine 1 receptor in rat brain using [3H]HT radioligand assay. It counts as tissue-based.
Test [5] has as its target Beta-1 adrenergic receptor (Rattus norvegicus, UniProt P18090). Put plainly: Compound was evaluated for its binding affinity to beta-1 receptor in rat brain using [3H]- DHA radioligand assay. It counts as tissue-based.
Test [6] addresses D(1A) dopamine receptor (Rattus norvegicus, UniProt P18901). Put plainly: Compound was evaluated for its binding affinity to Dopamine receptor D1 in rat striatum using [3H]- SCH-23390 radioligand assay. It counts as tissue-based.
Test [7] addresses T1, Adrenergic receptor alpha-2 (Rattus norvegicus, UniProt P22086+P19328+P22909).
T1 sequence (P22086 whole entry): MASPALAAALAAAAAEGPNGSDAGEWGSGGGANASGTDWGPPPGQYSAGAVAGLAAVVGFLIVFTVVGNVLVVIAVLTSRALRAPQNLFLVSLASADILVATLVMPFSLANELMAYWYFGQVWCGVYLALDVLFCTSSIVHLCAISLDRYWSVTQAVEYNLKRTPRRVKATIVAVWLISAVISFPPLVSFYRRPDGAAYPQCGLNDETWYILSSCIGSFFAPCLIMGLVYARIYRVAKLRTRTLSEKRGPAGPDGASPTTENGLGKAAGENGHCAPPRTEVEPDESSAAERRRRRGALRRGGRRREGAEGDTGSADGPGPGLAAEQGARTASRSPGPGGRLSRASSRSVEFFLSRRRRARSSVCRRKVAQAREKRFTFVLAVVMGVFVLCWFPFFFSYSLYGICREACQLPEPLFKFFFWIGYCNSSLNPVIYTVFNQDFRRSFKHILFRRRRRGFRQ
T1 sequence (P19328 whole entry): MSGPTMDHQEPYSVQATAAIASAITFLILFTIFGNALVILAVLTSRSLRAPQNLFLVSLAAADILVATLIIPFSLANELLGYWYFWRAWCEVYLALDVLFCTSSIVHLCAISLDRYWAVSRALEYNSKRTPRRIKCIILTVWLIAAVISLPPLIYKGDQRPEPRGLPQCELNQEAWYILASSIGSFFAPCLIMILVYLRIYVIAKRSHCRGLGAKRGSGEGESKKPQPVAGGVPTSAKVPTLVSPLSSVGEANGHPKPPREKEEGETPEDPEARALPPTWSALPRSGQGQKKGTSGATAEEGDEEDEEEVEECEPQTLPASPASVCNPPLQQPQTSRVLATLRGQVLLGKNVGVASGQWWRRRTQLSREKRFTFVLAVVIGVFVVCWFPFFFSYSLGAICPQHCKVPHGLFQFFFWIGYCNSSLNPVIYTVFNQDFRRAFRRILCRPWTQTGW
T1 sequence (P22909 whole entry): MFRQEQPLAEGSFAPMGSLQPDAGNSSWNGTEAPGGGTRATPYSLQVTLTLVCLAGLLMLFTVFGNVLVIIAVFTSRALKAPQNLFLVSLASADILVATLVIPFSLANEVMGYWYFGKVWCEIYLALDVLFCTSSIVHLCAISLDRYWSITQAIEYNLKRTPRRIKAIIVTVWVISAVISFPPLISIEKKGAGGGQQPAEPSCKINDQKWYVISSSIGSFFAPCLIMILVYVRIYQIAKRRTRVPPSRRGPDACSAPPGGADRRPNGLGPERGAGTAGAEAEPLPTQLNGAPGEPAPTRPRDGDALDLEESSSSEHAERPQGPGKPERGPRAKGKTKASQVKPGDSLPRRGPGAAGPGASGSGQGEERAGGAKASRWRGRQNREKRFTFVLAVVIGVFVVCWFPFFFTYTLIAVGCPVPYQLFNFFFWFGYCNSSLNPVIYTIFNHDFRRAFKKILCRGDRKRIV
Put plainly: Evaluated for affinity at Alpha-2 adrenergic receptor of rat cortex using [3H]rauwolscine as radioligand in radioligand binding assay.

For test [8], the species on record is Rattus norvegicus. Put plainly: Evaluated for inhibition of dopamine, biogenic amine reuptake in synaptosomal rat brain preparations. In kind it is functional.
In test [9] the target is D(2) dopamine receptor (Rattus norvegicus, UniProt P61169). Put plainly: Compound was evaluated for its binding affinity to Dopamine receptor D2 in rat brain using [3H]- spiroperidol radioligand assay. In kind it is tissue-based.
Test [10] addresses T2, Adrenergic receptor alpha-1 (Rattus norvegicus, UniProt P15823+P23944+P43140).
T2 sequence (P15823 whole entry): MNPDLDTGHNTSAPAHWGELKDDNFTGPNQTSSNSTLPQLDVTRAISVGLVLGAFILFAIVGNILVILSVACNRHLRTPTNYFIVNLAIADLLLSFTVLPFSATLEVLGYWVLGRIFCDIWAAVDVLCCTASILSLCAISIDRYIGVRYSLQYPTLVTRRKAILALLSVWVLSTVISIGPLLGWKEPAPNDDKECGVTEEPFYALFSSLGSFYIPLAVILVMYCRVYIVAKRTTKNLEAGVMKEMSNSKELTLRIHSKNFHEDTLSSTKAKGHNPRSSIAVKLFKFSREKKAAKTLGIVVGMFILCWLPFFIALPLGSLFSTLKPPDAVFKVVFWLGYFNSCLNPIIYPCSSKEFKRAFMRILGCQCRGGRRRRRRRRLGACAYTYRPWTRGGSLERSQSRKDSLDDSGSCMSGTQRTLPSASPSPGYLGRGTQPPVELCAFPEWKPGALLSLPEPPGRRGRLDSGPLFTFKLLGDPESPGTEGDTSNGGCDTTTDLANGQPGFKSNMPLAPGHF
T2 sequence (P23944 whole entry): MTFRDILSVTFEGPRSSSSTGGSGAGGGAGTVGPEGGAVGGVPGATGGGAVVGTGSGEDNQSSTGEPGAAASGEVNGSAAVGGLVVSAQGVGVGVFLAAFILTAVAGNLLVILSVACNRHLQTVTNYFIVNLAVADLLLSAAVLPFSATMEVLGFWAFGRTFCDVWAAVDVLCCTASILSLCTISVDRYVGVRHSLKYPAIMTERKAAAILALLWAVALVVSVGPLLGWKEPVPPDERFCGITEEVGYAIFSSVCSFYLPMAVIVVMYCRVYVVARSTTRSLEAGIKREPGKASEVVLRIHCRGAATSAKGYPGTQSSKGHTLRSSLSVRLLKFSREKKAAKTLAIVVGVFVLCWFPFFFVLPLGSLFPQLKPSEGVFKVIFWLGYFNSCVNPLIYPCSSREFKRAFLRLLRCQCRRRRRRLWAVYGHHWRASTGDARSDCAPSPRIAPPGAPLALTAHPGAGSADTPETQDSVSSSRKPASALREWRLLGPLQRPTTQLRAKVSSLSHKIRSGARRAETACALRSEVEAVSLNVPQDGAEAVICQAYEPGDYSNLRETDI
T2 sequence (P43140 whole entry): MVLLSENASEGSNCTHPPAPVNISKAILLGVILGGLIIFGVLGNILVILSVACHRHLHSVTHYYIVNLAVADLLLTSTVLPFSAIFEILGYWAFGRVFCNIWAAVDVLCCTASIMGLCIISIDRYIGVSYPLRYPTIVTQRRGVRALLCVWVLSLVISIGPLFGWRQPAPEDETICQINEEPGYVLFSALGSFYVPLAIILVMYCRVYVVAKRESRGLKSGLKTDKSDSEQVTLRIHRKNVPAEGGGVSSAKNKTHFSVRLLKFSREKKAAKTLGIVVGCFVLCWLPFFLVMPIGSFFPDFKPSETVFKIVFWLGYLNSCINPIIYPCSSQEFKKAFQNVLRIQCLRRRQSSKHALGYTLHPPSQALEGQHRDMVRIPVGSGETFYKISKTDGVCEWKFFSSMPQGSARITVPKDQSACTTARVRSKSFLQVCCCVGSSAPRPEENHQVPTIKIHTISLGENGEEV
Put plainly: Evaluated for affinity at Alpha-1 adrenergic receptor of rat brain using [3H]prazosin as radioligand in radioligand binding assay.

The species entered for test [11] is Rattus norvegicus. Put plainly: […] p-chloroamphetamine (PCA) induced hyperactivity in rats. It counts as functional.
Test [12] deals with T1, Adrenergic receptor alpha-2. Put plainly: Evaluated for affinity at Alpha-2 adrenergic receptor of rat brain using [3H]rauwolscine as radioligand in radioligand binding assay.
Test [13] is filed under the species Rattus norvegicus. Put plainly: Evaluated for inhibition of 5-Hydroxytryptamine, biogenic amine reuptake in synaptosomal rat brain preparations. It counts as functional.

Beta-1 adrenergic receptor, sequence (P18090 whole entry): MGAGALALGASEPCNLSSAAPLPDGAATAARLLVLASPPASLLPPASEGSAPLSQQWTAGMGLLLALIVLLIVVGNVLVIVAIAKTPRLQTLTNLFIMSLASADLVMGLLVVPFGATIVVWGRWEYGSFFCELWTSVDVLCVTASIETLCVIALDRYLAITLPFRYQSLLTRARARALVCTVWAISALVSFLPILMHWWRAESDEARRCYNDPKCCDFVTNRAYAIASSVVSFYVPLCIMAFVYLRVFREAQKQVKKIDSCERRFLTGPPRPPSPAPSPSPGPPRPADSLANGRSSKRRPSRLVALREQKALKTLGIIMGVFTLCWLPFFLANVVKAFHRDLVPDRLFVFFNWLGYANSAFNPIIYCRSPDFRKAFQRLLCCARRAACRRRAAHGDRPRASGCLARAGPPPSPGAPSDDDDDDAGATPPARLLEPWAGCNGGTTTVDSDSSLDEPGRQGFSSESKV
D(2) dopamine receptor, sequence (P61169 whole entry): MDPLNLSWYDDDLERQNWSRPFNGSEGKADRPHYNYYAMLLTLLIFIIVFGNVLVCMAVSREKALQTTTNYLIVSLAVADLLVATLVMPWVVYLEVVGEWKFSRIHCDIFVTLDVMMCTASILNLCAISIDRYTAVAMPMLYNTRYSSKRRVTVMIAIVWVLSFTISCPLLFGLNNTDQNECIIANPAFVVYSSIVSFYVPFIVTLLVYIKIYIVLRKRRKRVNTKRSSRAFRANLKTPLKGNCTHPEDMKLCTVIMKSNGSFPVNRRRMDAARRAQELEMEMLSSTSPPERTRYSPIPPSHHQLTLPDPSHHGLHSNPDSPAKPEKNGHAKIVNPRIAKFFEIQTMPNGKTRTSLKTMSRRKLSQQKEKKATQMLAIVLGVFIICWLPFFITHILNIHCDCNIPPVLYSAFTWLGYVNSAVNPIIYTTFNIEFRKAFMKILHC
D(1A) dopamine receptor, sequence (P18901 whole entry): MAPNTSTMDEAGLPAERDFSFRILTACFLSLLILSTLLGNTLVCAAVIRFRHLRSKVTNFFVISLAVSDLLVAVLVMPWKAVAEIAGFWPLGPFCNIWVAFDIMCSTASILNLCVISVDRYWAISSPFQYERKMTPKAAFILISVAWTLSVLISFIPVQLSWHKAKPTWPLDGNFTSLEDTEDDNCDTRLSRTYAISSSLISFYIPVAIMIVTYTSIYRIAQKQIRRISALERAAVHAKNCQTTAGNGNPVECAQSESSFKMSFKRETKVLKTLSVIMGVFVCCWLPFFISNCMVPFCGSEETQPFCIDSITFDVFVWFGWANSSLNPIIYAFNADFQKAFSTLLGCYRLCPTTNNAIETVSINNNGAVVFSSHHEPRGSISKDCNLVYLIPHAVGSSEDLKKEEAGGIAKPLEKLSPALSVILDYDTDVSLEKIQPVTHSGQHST

For the compound `COc1cccc2c1CCC[C@H]2CN(C)CCc1ccc2ccoc2c1`, the values for the IC50 in test [1] and in test [8] were 865 nM and 2940 nM, respectively. The 50% effective dose (ED50) in test [2] was 7.1 mg/kg; in test [11], 13.3 mg/kg. The Ki in test [3] amounted to 144 nM; in test [4], 2970 nM; in test [5], 836 nM; in test [6] it was 744 nM; in test [7] it was 2.01 nM; in test [9], 52 nM. Also, in test [10], the inhibition constant (Ki) was 110 nM.
Consider `COc1cccc2c1CCC[C@@H]2CN(C)CCc1ccc2ccoc2c1`, for which the half-maximal inhibitory concentration (IC50) in test [1] is 476 nM; in test [8] it was 4750 nM. The Ki in test [12] came out at 110 nM; in test [10] it was 241 nM.
`CNCCC(Oc1ccc(C(F)(F)F)cc1)c1ccccc1` (stereo unspecified) [FLUOXETINE]: the half-maximal inhibitory concentration (IC50) is 3280 nM in test [1], 308 nM in test [13] and 16200 nM in [8]. Besides, the median effective dose (ED50) was determined as 12.1 mg/kg in test [2] and 11.7 mg/kg in test [11].
With `Fc1ccc([C@@H]2CCNC[C@H]2COc2ccc3c(c2)OCO3)cc1` [PAROXETINE], the results for the IC50 in test [1] and in test [8] were 160 nM and 7620 nM, respectively. The Ki in test [12] came out at 6310 nM; in test [10], 5320 nM.
In the case of `COC(=O)[C@H]1[C@H]2C[C@H]3c4[nH]c5ccccc5c4CCN3C[C@H]2CC[C@@H]1O` [RAUWOLSCINE], the IC50 in test [1] and in [8] was > 10000 nM in each case.

For the origin of these results see ChEMBL document CHEMBL1128895, “Synthesis and pharmacological characterization of A-80426: A putative novel antidepressant combining -2 antagonism with 5-HT uptake inhibition” (Bioorg Med Chem Lett, 1995).
